According to patent publication US20230150978A1, “QUINAZOLINONE DERIVATIVES AND USES THEREOF FOR TREATING A CANCER” (ENYO PHARMA, priority 2020, published 2023):

Columns and labels:
[1] = tested on: HMGB1; assay: HMGB1 release screen, Nano-Glo HiBiT extracellular detection; type: cell-based; conditions: Homo sapiens, MDA-MB-231, MDA-MB-231 cells stably expressing HMGB1-HiBiT; extracellular luminescence
Procedure: Construction of pBiT3.1-HMGB1 Plasmid
(§1) HMGB1 derived from pCMV6-AC-GFP plasmid (ref. RG205918, Origene) was amplified by PCR using the following set of primers: Seq ID No 1: forward, 5′-[…]-3′; Seq ID No 2: reverse, 5′-[…]-3′. The PCR fragment was subsequently digested by EcoRI and XhoI (R3101S and R0146S respectively, New England Biolabs) and inserted between the EcoRI and XhoI sites in the plasmid pBiT3.1-C(ref. N237A, Promega). The resulting plasmid (pBiT3.1-HMGB1) was grown in NEB10-beta competent E. coli (ref. C3019I, New England Biolabs) and purified using the NucleoBond Xtra Midi Kit (ref. 740410, Macherey-Nagel).
Construction of HMGB1 Reporter Cell Line
(§2) pBiT3.1-HMGB1 was transfected in MDA-MB-231 cells (ref. ATCC HTB-2) using Lipofectamine 2000 reagent (ref. 11668, Invitrogen). Transfected cells were selected for blasticidin resistance (15 μg/ml, ref. Al 113903 Gibco) in medium containing DMEM 1× (ref. 1995065, Gibco) with 1% penicillin and streptomycin, and 10% fetal bovine serum.
Screen for HMGB1-Releasing Drugs
(§3) MDA-MB-231 cells stably expressing HMGB1-HiBiT (10^4 cells/well) were seeded into white 96-well plates (ref.3917, Corning) and allowed to recover for 24h. […] Mitoxantrone dihydrochloride (ref. M6545, Sigma-Aldrich) was used as a positive control. Extracellular translocation of HMGB1 was measured using the Nano-Glo HiBiT extracellular detection system (ref. N2422, Promega). Nano-Glo HiBiT Extracellular Reagent was prepared in advance, added to the well and incubated 10 min. Luminescence of the extracellular HMGB1-HiBiT was quantified using the Spark 20M spectrofluorimeter (TECAN)

[2] = tested on: Calreticulin; assay: Calreticulin release (ER to plasma membrane translocation) screen, Nano-Glo HiBiT extracellular detection; type: cell-based; conditions: Homo sapiens, MDA-MB-231, MDA-MB-231 cells stably expressing Calreticulin-HiBiT; extracellular luminescence; read-out: CalR EC50
Procedure: as §1, with “Construction of pBiT3.1-Calreticulin Plasmid Calreticulin” for “HMGB1”, “pCMV6-AC” for “pCMV6-AC-GFP”, “SC320287,” for “RG205918,”, “3:” for “1:”, “4:” for “2:”, “(pBiT3.1-Calreticulin)” for “(pBiT3.1-HMGB1)”
Construction of Calreticulin Reporter Cell Line
as §2, with “pBiT3.1-Calreticulin” for “pBiT3.1-HMGB1”
Screen for Calreticulin-ER to Plasma Membrane Translocating Drugs
as §3, with “Calreticulin-HiBiT” for “HMGB1-HiBiT”, “Calreticulin” for “HMGB1”, “min.” for “min. Luminescence of the extracellular HMGB1-HiBiT was quantified using the Spark 20M spectrofluorimeter (TECAN)”
Luminescence of the extracellular Calreticulin-HiBiT was quantified using the Spark 20M spectrofluorimeter (TECAN).

Row | Structure (SMILES) | EC50 [1] [µM] | EC50 [2] [µM]
1 | COc1cc2c(=O)[nH]c(CN3CCc4ccccc43)nc2cc1F [Ex. #76, 7-fluoro-2-(indolin-1-ylmethyl)-6-methoxy-3H-quinazolin-4-one] | 0.594 | 0.292
2 | COc1ccc2c(c1)CCN2Cc1nc2ccc(Cl)cc2c(=O)[nH]1 [Ex. #144, 6-chloro-2-((5-methoxyindolin-1-yl)methyl)quinazolin-4(3H)-one] | 14.6 | 9.71
3 | COc1ccc2nc(CN3CCc4ccccc43)[nH]c(=O)c2c1 [Ex. #1, 2-(indolin-1-ylmethyl)-6-methoxy-3H-quinazolin-4-one] | 2.72 | 0.231
4 | Cc1ccc2nc(CN3CCc4ccccc43)[nH]c(=O)c2c1 [Ex. #84, 2-(indolin-1-ylmethyl)-6-methyl-3H-quinazolin-4-one] | 2.63 | 0.695
5 | O=c1[nH]c(CN2CCCc3ccccc32)nc2ccc(Cl)cc12 [Ex. #51, 6-chloro-2-(3,4-dihydro-2H-quinolin-1-ylmethyl)-3H-quinazolin-4-one] | 11.8 | 10.3
6 | CN(C)c1ccc2nc(CN3CCc4ccccc43)[nH]c(=O)c2c1 [Ex. #73, 6-(dimethylamino)-2-(indolin-1-ylmethyl)-3H-quinazolin-4-one] | 0.275 | 0.253
7 | O=c1[nH]c(CN2CCCOc3ccccc32)nc2ccc(Cl)cc12 [Ex. #64, 6-chloro-2-(3,4-dihydro-2H-1,5-benzoxazepin-5-ylmethyl)-3H-quinazolin-4-one] | 5.31 | 2.46
8 | COc1ccc2c(c1)N(Cc1nc3ccc(Cl)cc3c(=O)[nH]1)CCC2 [Ex. #55, 6-chloro-2-[(7-methoxy-3,4-dihydro-2H-quinolin-1-yl)methyl]-3H-quinazolin-4-one] | 10.8 | 11.3
9 | Cc1ccc2c(c1)N(Cc1nc3ccc(Cl)cc3c(=O)[nH]1)CCC2 [Ex. #127, 6-chloro-2-[(7-methyl-3,4-dihydro-2H-quinolin-1-yl)methyl]-3H-quinazolin-4-one] | 13.4 | 6.96
10 | COc1ccc2nc(CN3CCCc4ccccc43)[nH]c(=O)c2c1 [Ex. #15, 2-(3,4-dihydro-2H-quinolin-1-ylmethyl)-6-methoxy-3H-quinazolin-4-one] | 3.34 | 1.06
11 | COc1ccc2c(=O)[nH]c(CN3CCc4ccccc43)nc2c1 [Ex. #86, 2-(indolin-1-ylmethyl)-7-methoxy-3H-quinazolin-4-one] | 3.86 | 2.56
12 | Cc1ccc2c(c1)N(Cc1nc3ccc(Cl)cc3c(=O)[nH]1)CC2 [Ex. #45, 6-chloro-2-[(6-methylindolin-1-yl)methyl]-3H-quinazolin-4-one] | 4.66 | 1.21
13 | COc1ccc2nc(CN3CCc4c(F)cccc4C3)[nH]c(=O)c2c1 [Ex. #124, 2-[(5-fluoro-3,4-dihydro-1H-isoquinolin-2-yl)methyl]-6-methoxy-3H-quinazolin-4-one] | 13.5 | 2.16
14 | O=c1[nH]c(CN2CCOc3ccccc32)nc2ccc(Cl)cc12 [Ex. #57, 6-chloro-2-(2,3-dihydro-1,4-benzoxazin-4-ylmethyl)-3H-quinazolin-4-one] | 11.9 | 14.2
15 | O=c1[nH]c(CN2Cc3ccccc3C2)nc2ccc(Cl)cc12 [Ex. #50, 6-chloro-2-(isoindolin-2-ylmethyl)-3H-quinazolin-4-one] | 11.6 | 4.66
16 | COc1ccc2nc(CN3CCOc4cccc(OC)c43)[nH]c(=O)c2c1 [Ex. #14, 6-methoxy-2-[(5-methoxy-2,3-dihydro-1,4-benzoxazin-4-yl)methyl]-3H-quinazolin-4-one] | 2.16 | 1.96

Row | Structure (SMILES) | EC50 [1] [µM] | EC50 [2] [µM]
17 | COC1CN(c2ccc3nc(CN4CCc5ccccc54)[nH]c(=O)c3c2)C1 [Ex. #101, 2-(indolin-1-ylmethyl)-6-(3-methoxyazetidin-1-yl)-3H-quinazolin-4-one] | 10.2 | 10
18 | O=c1[nH]c(CN2CCc3ccccc32)nc2cc(C(F)(F)F)ccc12 [Ex. #91, 2-(indolin-1-ylmethyl)-7-(trifluoromethyl)-3H-quinazolin-4-one] | 10.1 | 8.11
19 | COCC1CCN(c2ccc3nc(CN4CCc5ccccc54)[nH]c(=O)c3c2)C1 (stereo not shown) [Ex. #103, 2-(indolin-1-ylmethyl)-6-[3-(methoxymethyl)pyrrolidin-1-yl]-3H-quinazolin-4-one] | 0.858 | 0.518
20 | O=c1[nH]c(CN2CCc3cc(Br)ccc32)nc2ccc(Cl)cc12 [Ex. #48, 2-[(5-bromoindolin-1-yl)methyl]-6-chloro-3H-quinazolin-4-one] | 6.06 | 5.96
21 | COc1cccc2c1N(Cc1nc3ccc(Cl)cc3c(=O)[nH]1)CC2 [Ex. #49, 6-chloro-2-[(7-methoxyindolin-1-yl)methyl]-3H-quinazolin-4-one] | 11.2 | 7.56
22 | CN1CCCN(Cc2nc3ccc(Cl)cc3c(=O)[nH]2)c2ccccc21 [Ex. #63, 6-chloro-2-[(1-methyl-3,4-dihydro-2H-1,5-benzodiazepin-5-yl)methyl]-3H-quinazolin-4-one] | 4.26 | 3.86
23 | CC1Cc2ccccc2N1Cc1nc2ccc(Cl)cc2c(=O)[nH]1 (stereo not shown) [Ex. #41, 6-chloro-2-[(2-methylindolin-1-yl)methyl]-3H-quinazolin-4-one] | 9.61 | 8.01
24 | Cc1cccc2c1CCN2Cc1nc2ccc(Cl)cc2c(=O)[nH]1 [Ex. #43, 6-chloro-2-[(4-methylindolin-1-yl)methyl]-3H-quinazolin-4-one] | 1.15 | 1.07
25 | Cc1cccc2c1CCCN2Cc1nc2ccc(Cl)cc2c(=O)[nH]1 [Ex. #53, 6-chloro-2-[(5-methyl-3,4-dihydro-2H-quinolin-1-yl)methyl]-3H-quinazolin-4-one] | 2.51 | 0.73
26 | COc1ccc2nc(CN3Cc4ccccc4C(O)C3)[nH]c(=O)c2c1 (stereo not shown) [Ex. #123, 2-[(4-hydroxy-3,4-dihydro-1H-isoquinolin-2-yl)methyl]-6-methoxy-3H-quinazolin-4-one] | 13.1 | 3.61
27 | O=c1[nH]c(CN2CCc3cc(F)ccc32)nc2ccc(Cl)cc12 [Ex. #47, 6-chloro-2-[(5-fluoroindolin-1-yl)methyl]-3H-quinazolin-4-one] | 3.98 | 2.18
28 | O=c1[nH]c(CN2CCc3ccccc32)nc2cc(Cl)ccc12 [Ex. #89, 7-chloro-2-(indolin-1-ylmethyl)-3H-quinazolin-4-one] | 6.26 | 8.26
29 | COc1ccc2nc(CN3Cc4ccccc4C3)[nH]c(=O)c2c1 [Ex. #10, 2-(isoindolin-2-ylmethyl)-6-methoxy-3H-quinazolin-4-one] | 6.86 | 4.46
30 | O=c1[nH]c(CN2CCc3ccccc32)nc2ccc(N3CCCC3)cc12 [Ex. #102, 2-(indolin-1-ylmethyl)-6-pyrrolidin-1-yl-3H-quinazolin-4-one] | 1.37 | 0.595
31 | COc1ccc2nc(CN3CCc4c(Br)cccc4C3)[nH]c(=O)c2c1 [Ex. #18, 2-[(5-bromo-3,4-dihydro-1H-isoquinolin-2-yl)methyl]-6-methoxy-3H-quinazolin-4-one] | 9.36 | 2.06
32 | O=c1[nH]c(CN2CCc3ccccc32)nc2cc(F)ccc12 [Ex. #138, 7-fluoro-2-(indolin-1-ylmethyl)-3H-quinazolin-4-one] | 14.5 | 12
